Active and inactive are the calls of the source. Peptide text beside a SMILES is read from it. * marks the point of attachment. boroAla = C[C@H](N*)B(O)O
Assays:
[1] = test system: Mycolicibacterium smegmatis
[2] = test system: Mycobacterium tuberculosis
[3] = test system: Mycobacterium thermoresistibile

Measured: inhibition

CC(C)[C@H](NC(=O)[C@H](C)N)C(=O)N[C@@H](CCCCN)C(=O)N[C@@H](C)C(=O)N[C@@H](C)B(O)O (H-AVKA-boroAla)
inactive: all assays above

Source: ChEMBL document CHEMBL3352621, “Pentapeptide boronic acid inhibitors of Mycobacterium tuberculosis MycP1 protease” (Bioorg Med Chem Lett, 2014)
